{
  "source": "patent US6562785B1",
  "about": "“Method for overcoming bacterial antibiotic resistance” (priority 1999, dated 2003)",
  "key": {"[1]": {"test_system": "Staphylococcus aureus (ATCC 29213) and Micrococcus luteus", "assay": "Membrane permeability by TO-PRO-3 staining, flow cytometry", "format": "cell-based", "settings": "for bacteria stained by TO-PRO-3: 4 hours exposure to 4 μg/ml", "method": "(§1) Flow cytometric studies were performed using a laboratory-built dual laser instrument optimized for bacterial analysis. DiOC2(3) was excited at 488 nm by a beam from an argon ion laser; its green fluorescence was detected through a 530 nm, 20 nm bandwidth bandpass filter, and its red fluorescence was detected through a 610 nm, 19 nm bandpass filter. TO-PRO-3™ was excited at 633 nm by a beam from a helium-neon laser, and its fluorescence was detected through a 695 nm long pass filter. Light scattered at small angles to the 488 nm beam (forward scatter) was used as the trigger signal. Sheath flow rate was 10 ml/min; sample analysis rate was kept below 1,000 events/second. The signal pulse amplitudes were captured by high-precision peak detectors, and digitized using an Analogic HSDAS-16 16-bit data acquisition system in a Pentium-class personal computer. Software was used to perform logarithmic conversion on all of the parameters, which were represented on a 256-channel, 4-decade logarithmic scale.\n(§2) Staphylococcus aureus (ATCC 29213) and Micrococcus luteus were grown overnight in trypticase soy broth. Stock solutions of antibiotics were made according to Anhalt & Washington (1991)(Balows, A. et al, (eds) American Society for Microbiology, Washington, 1991, pp. 1199-200). Antibiotics were diluted to the appropriate concentration in 1 ml of Mueller-Hinton broth (Gibco, Gaithersburg, Md.), and filtered though a 0.22 μm filter (Gelman Sciences, Ann Arbor, Mich.). MIC was defined as the minimum concentration of antibiotic that caused no growth after 24 hours in Mueller-Hinton broth.\n(§3) Bacteria were added to an antibiotic solution at a concentration of 5.5×10^5/ml and incubated for the appropriate amount of time at 37 degrees C. while shaking. At each time point, a […] aliquot was removed and 30 μM DiOC2(3) and 100 nM TO-PRO-3™ were added simultaneously. The bacteria were allowed to incubate with the dye for 4 minutes prior to flow cytometric analysis. A second […] aliquot was treated identically, except that CCCP (final concentration 15 μM) was added to electrically depolarize the bacteria (i.e., to reduce membrane potential to zero).\n(§4) Membrane potential was determined as a ratio of red to green DiOC2(3) fluorescence, providing a cell size-independent measure of MP. To measure membrane permeability, 100 nM TO-PRO-3™ was used in conjunction with the MP dye, DiOC2(3). […] Cells killed by heat exposure (100 degrees C. for 10 minutes) were used as positive controls for TO-PRO-3™ staining.\nEffects of amoxicillin (MIC 2 μg/ml) were strongly concentration-dependent. […] Changes in permeability could be observed 45 minutes after antibiotic addition; however, the variance of the TO-PRO-3™ fluorescence distribution was quite large, due primarily to the large variance in size resulting from drug administration. The raw TO-PRO-3™ fluorescence data was corrected for size variation by calculating a quantity proportional to the logarithm of the ratio of TO-PRO-3™ fluorescence to green DiOC2(3) fluorescence, which is known to be proportional to size; the logarithm of green fluorescence was subtracted from the logarithm of TO-PRO-3™ fluorescence, and a constant was added to keep the values on scale. This allowed cells which had become permeable to TO-PRO-3™ to be visualized as a discrete population. Thus, when the size of the bacteria is altered by the permeabilizing agent, such as β-lactam antibiotics used at concentrations below MIC, correction for change in cell volume is important in making permeability measurements. […] Resumption of bacterial growth was coincident with this reversion to a TO-PRO-3™-impermeable state, which occurred after 3 hours in the presence of 0.25 μg/ml amoxicillin and after 4 hours in the presence of 0.5 μg/ml."}, "[2]": {"test_system": "Staphylococcus aureus (ATCC 29213) and Micrococcus luteus", "assay": "Membrane potential by ratio of red to green DiOC2(3) fluorescence, flow cytometry", "format": "cell-based", "method": "as §1, §2, §3, §4"}, "[3]": {"test_system": "Staphylococcus aureus (ATCC 29213) and Micrococcus luteus", "assay": "Bacterial growth and size (bead-referenced counts, forward scatter, microscopy)", "format": "cell-based", "method": "as §2\nBacteria were added to an antibiotic solution at a concentration of 5.5×10^5/ml and incubated for the appropriate amount of time at 37 degrees C. while shaking. […]\nBacteria were counted by adding […] sky blue beads (Spherotech, Libertyville, Ill.) to the cell suspension at a known concentration, determined by counting on a haemocytometer. […] Beads were diluted 1:100 into the bacterial sample and could be identified and counted based on their intense fluorescence (excitation at 633 nm; emission above 695 nm). The volume of sample analyzed in any given aliquot was calculated from the number of beads measured; dividing the number of bacteria by this volume yielded the concentration of bacteria in the aliquot."}, "[4]": {"test_system": "Staphylococcus aureus (ATCC 29213) and Micrococcus luteus", "assay": "MIC: minimum antibiotic concentration causing no growth after 24 hours in Mueller-Hinton broth", "format": "cell-based", "settings": "ATCC29213", "method": "Staphylococcus aureus (ATCC 29213) and Micrococcus luteus were grown overnight in trypticase soy broth. Stock solutions of antibiotics were made according to […] & Washington (1991)(Balows, A. et al, (eds) American Society for Microbiology, Washington, 1991, pp. 1199-200). Antibiotics were diluted to the appropriate concentration in 1 ml of Mueller-Hinton broth (Gibco, Gaithersburg, Md.), and filtered though a 0.22 μm filter (Gelman Sciences, Ann Arbor, Mich.). MIC was defined as the minimum concentration of antibiotic that caused no growth after 24 hours in Mueller-Hinton broth."}, "gram negative organisms": {"test_system": "gram negative organisms", "settings": "concentrations up to 10 times MIC; cited from earlier work"}, "[5]": {"settings": "even at high concentrations; cited from earlier work"}},
  "data": [
    {"compound": "CC1(C)S[C@@H]2[C@H](NC(=O)[C@H](N)c3ccc(O)cc3)C(=O)N2[C@H]1C(=O)O", "note": "[amoxicillin]", "values": [
      {"measurement": "time to reversion to TO-PRO-3-impermeable state, coincident with resumption of bacterial growth", "setting": "[1]; 0.25 μg/ml", "value": 3, "unit": "h"},
      {"measurement": "time to reversion to TO-PRO-3-impermeable state, coincident with resumption of bacterial growth", "setting": "[1]; 0.5 μg/ml", "value": 4, "unit": "h"},
      {"measurement": "percentage of cells permeable to TO-PRO-3, 4 μg/ml compared with 1 μg/ml", "setting": "[1]; 4 μg/ml versus 1 μg/ml", "value": "lower percentages of cells permeable to TO-PRO-3™"},
      {"measurement": "membrane integrity after four hours", "setting": "[1]; 0.25 or 0.5 μg/ml, after four hours", "value": "the majority of the cells regained their membrane integrity"},
      {"measurement": "TO-PRO-3 permeable population and its MP", "setting": "[1]; after 2 hours at either 0.25 or 0.5 μg/ml", "value": "a population that was permeable to TO-PRO-3™, but that maintained a normal MP, was detected"},
      {"measurement": "time after antibiotic addition at which changes in permeability could be observed", "setting": "[1]; concentrations below MIC", "value": 45, "unit": "min"},
      {"measurement": "dominant characteristic of treated cells (MP)", "setting": "[2]; concentrations above MIC", "value": "loss of MP"},
      {"measurement": "bacterial size", "setting": "[3]; concentrations below MIC, microscopy and forward scatter", "value": "drastically increased in size"},
      {"measurement": "MIC", "setting": "[4]", "value": 2, "unit": "µg/mL"}
    ]},
    {"compound": "gentamicin", "values": [
      {"measurement": "changes in permeability to nucleic acid stains", "setting": "gram negative organisms", "value": "no"}
    ]},
    {"compound": "CC[C@H]1OC(=O)[C@H](C)[C@@H](O[C@H]2C[C@@](C)(OC)[C@@H](O)[C@H](C)O2)[C@H](C)[C@@H](O[C@@H]2O[C@H](C)C[C@H](N(C)C)[C@H]2O)[C@](C)(O)C[C@@H](C)C(=O)[C@H](C)[C@@H](O)[C@]1(C)O", "note": "[erythromycin]", "values": [
      {"measurement": "bacteria stained by TO-PRO-3", "setting": "[1]", "value": 20, "unit": "%"},
      {"measurement": "permeability changes", "setting": "[1]; concentrations below 1 μg/ml", "value": "did not cause any permeability changes"},
      {"measurement": "MP reduced to", "setting": "[2]; 4 μg/ml, after 4 hours", "value": "−50", "unit": "mV"},
      {"measurement": "depolarization", "setting": "[2]; dependence on concentration and time", "value": "concentration- and time-dependent depolarizations"},
      {"measurement": "MIC", "setting": "[4]", "value": 4, "unit": "µg/mL"}
    ]},
    {"compound": "[H]/N=C(/N)N[C@H]1[C@H](O)[C@@H](O)[C@H](O[C@@H]2O[C@@H](C)[C@](O)(C=O)[C@H]2O[C@@H]2O[C@@H](CO)[C@H](O)[C@@H](O)[C@@H]2NC)[C@@H](N/C(N)=N\\[H])[C@@H]1O", "note": "[Streptomycin, streptomycin]", "values": [
      {"measurement": "permeability changes", "setting": "[1]; 5 μg/ml, 1 hour to 4 hours", "value": "No permeability changes were seen"},
      {"measurement": "effect on MP", "setting": "[2]; 5 μg/ml, by 1 hour, remained reduced at 105 minutes and 4 hours", "value": "reduced MP"},
      {"measurement": "effect on MP after erythromycin preincubation", "setting": "[2]; organisms preincubated with 1 mg/ml erythromycin for 30 minutes", "value": "abolished"}
    ]},
    {"compound": "CN(C)[C@@H]1C(O)=C(C(N)=O)C(=O)[C@@]2(O)C(O)=C3C(=O)c4c(O)cccc4[C@@](C)(O)[C@H]3C[C@@H]12", "note": "[Tetracycline, tetracycline]", "values": [
      {"measurement": "bacteria stained by TO-PRO-3", "setting": "[1]", "value": 50, "unit": "%"},
      {"measurement": "MP reduced to", "setting": "[2]; 4 μg/ml, after 4 hours", "value": "−50", "unit": "mV"},
      {"measurement": "MIC", "setting": "[4]", "value": 0.25, "unit": "µg/mL"}
    ]},
    {"compound": "O=C(N[C@H](CO)[C@H](O)c1ccc([N+](=O)[O-])cc1)C(Cl)Cl", "note": "[chloramphenicol]", "values": [
      {"measurement": "changes in permeability", "setting": "[1]; 4 μg/ml, after 4 hours", "value": "no changes"},
      {"measurement": "changes in permeability (Mortimer et al.)", "setting": "[5]", "value": "does not cause changes in permeability"},
      {"measurement": "changes in MP", "setting": "[2]; 4 μg/ml, after 4 hours", "value": "no changes"},
      {"measurement": "bacterial growth", "setting": "[3]; 4 μg/ml", "value": "completely prevented bacterial growth"}
    ]}
  ]
}
